# Source: patent US9345793B2, “Compounds for binding to the platelet specific glycoprotein IIB/IIIA and their use for imaging of thrombi” (PIRAMAL IMAGING SA, priority 2011, dated 2016)
# “And” between values parts separate entries of the source, which are not always exact repeats. Identical values can stand only once. “Also recorded” adds a separate entry of the source.
# Tests used:
# human thrombi = assay: Ex vivo blood flow model: binding to human thrombi, incl. competition with cold compound; conditions: ± SEM
# From the text: The binding of compounds to thrombi was further investigated in an ex vivo blood flow model similar to that described in “Wakhloo, A. K. et al. Thrombus and stroke 2008, in vitro models 57-66” but modified with regard to thrombus development. Briefly, an open handmade tube-set consisting of tygon-tubes (Tygon R-1000, part N^O AAU00007: I.D. 3.2 mm, O.D. 6.4 mm, Saint Gobain Performance Plastics North America), intermediate tubes (Intrafix® Infusion set, B. Braun, Melsungen, Germany) an open reservoir (10 mL Combitip, Eppendorf) and a chamber made of a piece of polyethylene-Tube, ([…] Polyethylene Tubing, Clay Adams, PE160, length: 6.5 cm) containing a loop of a roughened thread (fishing line: Okuma UltraMax whitefish, diameter: 0.14 mm, length: 5 cm; sandpaper: CAMI Grit designation: 600, CP918a, VSM) was used for thrombus formation. The connection between the intermediate tube and the thrombus chamber was made by trimmed tips (epTIPS, 200 μL, Eppendorff, Hamburg/Germany). The Reservoir and the thrombus chamber were fixed by clamps and stands. A peristaltic-pump (Minipuls 3, Gilson, Middelton/USA) was used to pump the blood around thereby adjusting the flow in the middle of the thrombus chamber to 70-90 cm per second, which was monitored by ultrasound Doppler measurement (Vevo 770 High-Resolution In Vivo Micro-Imaging System, VisualSonics, TorontoOntario, Canada; Scanhead: RMV 704, 40 MHz). The volume of the entire tube-set was 7.5 or 15 mL.
# For each experiment fresh blood was taken from a volunteer using 10 mL citrate-tubes (Sarstedt S-Monovette 02.1067.001, 10 mL, Citrate 3.13%) and immediately laid into the turning-device of an incubator at a temperature of 37° C. (Heraeus miniTherm CTT with integrated rotation- and turning device, turning speed: 19 rotations per minute, Heraeus Instruments GmbH, Hanau/Germany). As needed, two tubes were taken out of the turning-device and 15 mL were transferred to a 20 mL Syringe (Omnifix®, B. Braun, Melsungen/Germany) and gently mixed with 0.75 mL CaCl2-Solution before the peristaltic pump was started and the whole content of the syringe was transferred into the reservoir of the tube-set via a cell strainer (BD Falcon™ cell strain, 40 μm, BD, Franklin Lakes, N.J. USA). After 7 minutes 1 MBq or 0.5 MBq (15 mL or 7.5 mL) of the compound was added to the reservoir by means of a pipette, thereby mixing the content gently with the tip of the pipette. The blood was left circulating for another 3 minutes. Then, the pump was stopped, aliquots were taken from the blood and the thrombus together with the roughened thread was removed from the thrombus-chamber before both was weighted and measured in a gamma counter (Automatic Gamma Counter Wizard^2 3, Perkin Elmer). Then the thrombus together with the thread was incubated in Plasmin-solution (Plasmin from Human Plasma, Sigma Aldrich, stock-solution: 500 μg in 500 μL 150 μM Tris-buffer (pH 7.8), 20 μL stock-solution to 230 μL saline solution 0.9%) for 48 hours to separate the platelets from the thread and to determine the netto weight of the thrombus. Finally the activity of the compound in blood and thrombus as well as the ratio between both was determined (cpm/weight [mg]).
# To verify the specificity of the compound, a competition experiment was conducted in which the cold compound was added to the reservoir together with the hot compound. The final plasma concentration of the cold compound was 2.8 μM.
# [1] = Blood clearance in a cynomolgus monkey (PET and gamma counter); format: in vivo
# Procedure: Blood kinetics of the compound described in example 40 in cynomolgus monkey. PET-imaging was performed continuously from shortly before up to 60 minutes post injection. Venous blood samples were taken at 3, 10, 30 and 60 minutes p.i. and were measured in a gamma-counter (Automatic Gamma Counter Wizard^2 3, Perkin Elmer) and expressed as cpm/mg blood. Additionally, the blood-concentration of the compound was measured from the PET-Image over the whole imaging period and expressed as % ID/g.
# The blood clearance of the compound described in example 40 has been determined in a cynomolgus monkey. A female cynomolgus monkey was anesthetized with a mixture of Xylazin (Rompun®, Bayer HealthCare, Leverkusen, Germany), 0.12 mL/kg bodyweight and Ketamine (Ketavet®, Pfizer) 0.12 mL/kg bodyweight i.m. The monkey was placed inside the PET-scanner (Inveon PET/CT, Siemens Medical, Erlangen) and 25 MBq of the compound has been injected i.v. while PET-imaging was performed continuously from shortly before up to 60 minutes post injection. Venous blood samples were taken at 3, 10, 30 and 60 minutes p.i. and were measured in a gamma-counter (Automatic Gamma Counter Wizard^2 3, Perkin Elmer). Additionally, the blood-concentration of the compound was measured from the PET-Image over the whole imaging period (FIG. 4).
# [2] = tested on: arterial and venous thrombi; assay: Thrombus PET imaging and in vivo clot-to-blood ratio in cynomolgus monkeys; set-up: species or system cynomolgus monkey
# Procedure: The ability of the compound described in example 40 for the imaging of thrombi was investigated in a PET-study with cynomolgus monkeys (female, 2.8-3.2 kg).
# The first monkey was anesthetized with a mixture of Xylazin (Rompun®, Bayer HealthCare, Leverkusen, Germany), 0.12 mL/Kg and Ketamine (Ketavet®, Pfizer) 0.12 mL/Kg b.w. i.m. and additionally analgesized by an i.m. injection of 6 μg Buprenorphine per kg. While the investigation, small amounts of Ketamine have been injected i.m. if required. The left common carotid artery was exposed surgically and a polyethylene-tube ([…] Polyethylene Tubing, Clay Adams, PE50), which was roughened previously by sandpaper (600—CAMI Grit designation), was inserted into the vessel, advanced into the descending aorta and was left there for 30 minutes to allow for the development of a thrombus on the rough surface of the tube. Meanwhile, the monkey was placed inside the PET-scanner (Inveon PET/CT, Siemens Medical, Erlangen). […] The thickness of this layer was far below 1 mm (see also removed thrombus of Monkey 2, FIG. 7) and therewith also far below the resolution of the image, which is approximately 1 mm. This also means, that even slightest thrombi, even if their size is far less than the resolution of the imaging-device, can be visualized due to the massive accumulation of compound on the platelets of the thrombi. At the end of the experiment the tube was removed carefully from the vessel before it was weighted and measured in a gamma counter (Automatic Gamma Counter Wizard^2 3, Perkin Elmer). Then the thrombus together with the tube was incubated in Plasmin-solution (Plasmin from Human Plasma, Sigma Aldrich, Plasmin-stock-solution: 500 μg Plasmin in 500 μL Tris-buffer (150 μM, pH 7.8), 20 μL Plasmin-stock-solution to 230 μL saline solution 0.9%) for 48 hours to separate the platelets from the tube and to determine the netto weight of the thrombus. Finally the activity of the compound in blood and thrombus as well as the ratio between the two was determined (cpm/weight [mg]).
# The experiment was repeated with the same compound in another monkey with a slightly different preparation of the thrombogenic tube: This tube was roughened at only two short sections with a gap in between. Apart from that, the experimental design including the determination of the in vivo clot-to-blood ratio was as described above for monkey 1.
# The experiment was repeated with the same compound in another monkey, but with the reduced dose of 15 MBq for the whole animal. In addition to the arterial catheter, this animal also received a venous catheter, also made of PE50-catheter-tube and roughened at some parts with gaps in between as described above. […]
# The in vivo clot-to-blood ratio was determined from 5 thrombi out of the above described monkey experiments. As already mentioned above the thrombi had been removed from the vessels after imaging and had been weighted and measured in a gamma-counter (Automatic Gamma Counter Wizard^2 3, Perkin Elmer) together with blood samples taken from the animal. After incubation of the thrombi in Plasmin (Plasmin from Human Plasma, Sigma Aldrich, Plasmin-stock-solution: 500 μg Plasmin in 500 μL Tris-buffer (150 μM, pH 7.8), 20 μL Plasmin-stock-solution to 230 μL saline solution 0.9%) and removal of the thrombi from the catheter tubes, the netto weight of the thrombi was calculated and the concentration of the compound in thrombus (clot) and blood, as well as the ratio between the two was calculated.
compound,measurement,setting,value
"O=C(O)C[C@H](NC(=O)[C@@H]1CCCN(C(=O)CCC2CCNCC2)C1)c1cncc(OCC[18F])c1 [Example 40, (3S)-3-[5-(2-[^18F]Fluoroethoxy)pyridin-3-yl]-3-[({(3R)-1-[3-(piperidin-4-yl)propanoyl]piperidin-3-yl}carbonyl)amino]propanoic acid]",in vitro clot-to-blood ratio,human thrombi; 3 minutes post-injection of 18F-labeled compound,71 ± 4 (n = 3)
same,Accumulation Thrombus,"human thrombi; 3 minutes post-injection of 18F-labeled compound, without cold compound",202 ± 11 (n = 3) 10^3 cpm/mg
same,Thrombus competition,"human thrombi; cold compound added with hot compound, final plasma concentration 2.8 μM, 3 minutes",8 ± 1 (n = 3) 10^3 cpm/mg
same,blood clearance,"[1]; 25 MBq i.v., up to 60 minutes p.i.",rapidly cleared from the blood; also recorded: rapidly eliminated from the blood
same,contrast in the brain,[1]; PET,completely free of contrast
same,signal in other tissue,[1]; PET,only marginal signal visible in any other tissue
same,retention within the thrombus,[2]; 60 minutes were shown,almost completely remains within the thrombus
same,Blood,"[2]; blood sample of the animal, Cynomolgus monkey",90 cpm/mg and 130 cpm/mg and 100 cpm/mg
same,Clot/Blood mean (in vivo clot-to-blood ratio),"[2]; mean of 5 thrombi, sd 52",126+/−52 and 126
same,background in surrounding tissue or organ,"[2]; monkeys, PET",almost no background in any surrounding tissue or organ
same,accumulation in venous and arterial thrombi,"[2]; monkeys, PET, 15-25 MBq i.v.",surprisingly high accumulation
